Measured values reported in ChEMBL document CHEMBL3885861, “Open TG-GATES”.

Species: Rattus norvegicus
Assay: Open TG-GATES - Regimen: Single
Format: toxicity, organism-based, Sprague-Dawley
Parameters: regimen Single, gender Male, age 6 weeks
Details: in vivo, po, route gavage; for APTT / Bas / Eos / Fbg / Hb / Ht / Lym / MCH / MCHC / MCV / Mono / Neu / Plat / RBC / Ret / WBC: tissue Blood; for KIDNEY_L / KIDNEY_R / KIDNEY_TOTAL: tissue Kidney; for LIVER: tissue Liver; for ALP / ALT / AST / CRE / DBIL / GLC / IP / K / LDH / Na / PL / RALB / TBIL / TC / TG / TP / gamma-GTP: tissue Plasma
[1] = 0 mg/kg, 3 h, dose level Control
[2] = 0 mg/kg, 6 h, dose level Control
[3] = 0 mg/kg, 9 h, dose level Control
[4] = 0 mg/kg, 24 h, dose level Control

CN(C)CCC=C1c2ccccc2COc2ccccc21 [DOXEPIN]
TERMINAL_BW [1]: 197.6 g
APTT [1]: 20.9 s
Bas [1]: 0%
Eos [1]: 0.8%
Fbg [1]: 250.4 mg/dL
Hb [1]: 13.6 g/dL
Ht [1]: 41.4%
Lym [1]: 77.4%
MCH [1]: 21.2 pg
MCHC [1]: 32.9%
MCV [1]: 64.4 fL
Mono [1]: 3.6%
Neu [1]: 17.4%
Plat [1]: 123.1 x10_4/uL
RBC [1]: 644 x10_4/ul
Ret [1]: 8.4%
WBC [1]: 93.1 x10_2/uL
KIDNEY_L [1]: 0.9 g
KIDNEY_R [1]: 0.9 g
KIDNEY_TOTAL [1]: 1.8 g
LIVER [1]: 8.7 g
ALP [1]: 1553 IU/L
ALT [1]: 44 IU/L
AST [1]: 77.8 IU/L
CRE [1]: 0.2 mg/dL
DBIL [1]: 0.006 mg/dL
GLC [1]: 169.4 mg/dL
IP [1]: 8.4 mg/dL
K [1]: 4.2 meq/L
LDH [1]: 84.6 IU/L
Na [1]: 142.4 meq/L
PL [1]: 140.8 mg/dL
RALB [1]: 2.5 g/dL
TBIL [1]: 0.056 mg/dL
TC [1]: 74.8 mg/dL
TG [1]: 58.2 mg/dL
TP [1]: 5.3 g/dL
gamma-GTP [1]: 1.2 IU/L
TERMINAL_BW [2]: 196 g
APTT [2]: 17.7 s
Bas [2]: 0.2%
Eos [2]: 0.8%
Fbg [2]: 265.6 mg/dL
Hb [2]: 13.6 g/dL
Ht [2]: 41.4%
Lym [2]: 79.2%
MCH [2]: 21.8 pg
MCHC [2]: 32.8%
MCV [2]: 66.3 fL
Mono [2]: 3%
Neu [2]: 16.2%
Plat [2]: 112.3 x10_4/uL
RBC [2]: 624.8 x10_4/ul
Ret [2]: 9.3%
WBC [2]: 110.1 x10_2/uL
KIDNEY_L [2]: 0.9 g
KIDNEY_R [2]: 0.9 g
KIDNEY_TOTAL [2]: 1.8 g
LIVER [2]: 8.1 g
ALP [2]: 1565.4 IU/L
ALT [2]: 37.4 IU/L
AST [2]: 77.2 IU/L
CRE [2]: 0.2 mg/dL
DBIL [2]: 0.004 mg/dL
GLC [2]: 158.4 mg/dL
IP [2]: 8.9 mg/dL
K [2]: 4.1 meq/L
LDH [2]: 80.2 IU/L
Na [2]: 142.6 meq/L
PL [2]: 143.6 mg/dL
RALB [2]: 2.4 g/dL
TBIL [2]: 0.06 mg/dL
TC [2]: 76.4 mg/dL
TG [2]: 49.2 mg/dL
TP [2]: 5.3 g/dL
gamma-GTP [2]: 1.2 IU/L
TERMINAL_BW [3]: 195.7 g
APTT [3]: 17.2 s
Bas [3]: 0%
Eos [3]: 1%
Fbg [3]: 271.8 mg/dL
Hb [3]: 13.2 g/dL
Ht [3]: 39.9%
Lym [3]: 77.8%
MCH [3]: 21.5 pg
MCHC [3]: 32.9%
MCV [3]: 65.3 fL
Mono [3]: 2.2%
Neu [3]: 18.6%
Plat [3]: 119.3 x10_4/uL
RBC [3]: 612.4 x10_4/ul
Ret [3]: 8.9%
WBC [3]: 87 x10_2/uL
KIDNEY_L [3]: 0.9 g
KIDNEY_R [3]: 0.9 g
KIDNEY_TOTAL [3]: 1.8 g
LIVER [3]: 7.5 g
ALP [3]: 1472.4 IU/L
ALT [3]: 36.6 IU/L
AST [3]: 71.2 IU/L
CRE [3]: 0.2 mg/dL
DBIL [3]: 0 mg/dL
GLC [3]: 159.2 mg/dL
IP [3]: 9.7 mg/dL
K [3]: 3.9 meq/L
LDH [3]: 95 IU/L
Na [3]: 143 meq/L
PL [3]: 125.8 mg/dL
RALB [3]: 2.4 g/dL
TBIL [3]: 0.058 mg/dL
TC [3]: 70.6 mg/dL
TG [3]: 33.6 mg/dL
TP [3]: 5.3 g/dL
gamma-GTP [3]: 1.2 IU/L
TERMINAL_BW [4]: 214.2 g
APTT [4]: 18.6 s
Bas [4]: 0%
Eos [4]: 1.2%
Fbg [4]: 269 mg/dL
Hb [4]: 13 g/dL
Ht [4]: 38.8%
Lym [4]: 76.4%
MCH [4]: 21.7 pg
MCHC [4]: 33.5%
MCV [4]: 64.8 fL
Mono [4]: 3%
Neu [4]: 19%
Plat [4]: 116.4 x10_4/uL
RBC [4]: 600.2 x10_4/ul
Ret [4]: 8.1%
WBC [4]: 94.8 x10_2/uL
KIDNEY_L [4]: 1 g
KIDNEY_R [4]: 0.9 g
KIDNEY_TOTAL [4]: 1.9 g
ALP [4]: 2073 IU/L
ALT [4]: 37.8 IU/L
AST [4]: 75.6 IU/L
CRE [4]: 0.2 mg/dL
DBIL [4]: 0.004 mg/dL
GLC [4]: 173.2 mg/dL
IP [4]: 7.2 mg/dL
K [4]: 4 meq/L
LDH [4]: 106.6 IU/L
Na [4]: 141.6 meq/L
PL [4]: 153.8 mg/dL
RALB [4]: 2.5 g/dL
TBIL [4]: 0.04 mg/dL
TC [4]: 80.2 mg/dL
TG [4]: 89 mg/dL
TP [4]: 5.6 g/dL
gamma-GTP [4]: 1 IU/L
TERMINAL_BW (100 mg/kg, 3 h, dose level Low): 198.2 g
APTT (100 mg/kg, 3 h, dose level Low): 19.4 s
Bas (100 mg/kg, 3 h, dose level Low): 0%
Eos (100 mg/kg, 3 h, dose level Low): 1%
Fbg (100 mg/kg, 3 h, dose level Low): 282.4 mg/dL
Hb (100 mg/kg, 3 h, dose level Low): 13.1 g/dL
Ht (100 mg/kg, 3 h, dose level Low): 39.8%
Lym (100 mg/kg, 3 h, dose level Low): 79.6%
MCH (100 mg/kg, 3 h, dose level Low): 21.2 pg
MCHC (100 mg/kg, 3 h, dose level Low): 32.9%
MCV (100 mg/kg, 3 h, dose level Low): 64.4 fL
Mono (100 mg/kg, 3 h, dose level Low): 3%
Neu (100 mg/kg, 3 h, dose level Low): 16%
Plat (100 mg/kg, 3 h, dose level Low): 113.2 x10_4/uL
RBC (100 mg/kg, 3 h, dose level Low): 619.4 x10_4/ul
Ret (100 mg/kg, 3 h, dose level Low): 8.6%
WBC (100 mg/kg, 3 h, dose level Low): 80.4 x10_2/uL
KIDNEY_L (100 mg/kg, 3 h, dose level Low): 0.9 g
KIDNEY_R (100 mg/kg, 3 h, dose level Low): 0.9 g
KIDNEY_TOTAL (100 mg/kg, 3 h, dose level Low): 1.8 g
LIVER (100 mg/kg, 3 h, dose level Low): 8.6 g
ALP (100 mg/kg, 3 h, dose level Low): 1626.2 IU/L
ALT (100 mg/kg, 3 h, dose level Low): 39.4 IU/L
AST (100 mg/kg, 3 h, dose level Low): 69.2 IU/L
CRE (100 mg/kg, 3 h, dose level Low): 0.2 mg/dL
DBIL (100 mg/kg, 3 h, dose level Low): 0 mg/dL
GLC (100 mg/kg, 3 h, dose level Low): 182 mg/dL
IP (100 mg/kg, 3 h, dose level Low): 8.9 mg/dL
K (100 mg/kg, 3 h, dose level Low): 4.1 meq/L
LDH (100 mg/kg, 3 h, dose level Low): 82 IU/L
Na (100 mg/kg, 3 h, dose level Low): 143.8 meq/L
PL (100 mg/kg, 3 h, dose level Low): 159.6 mg/dL
RALB (100 mg/kg, 3 h, dose level Low): 2.5 g/dL
TBIL (100 mg/kg, 3 h, dose level Low): 0.046 mg/dL
TC (100 mg/kg, 3 h, dose level Low): 83.8 mg/dL
TG (100 mg/kg, 3 h, dose level Low): 57 mg/dL
TP (100 mg/kg, 3 h, dose level Low): 5.4 g/dL
gamma-GTP (100 mg/kg, 3 h, dose level Low): 1 IU/L
TERMINAL_BW (100 mg/kg, 6 h, dose level Low): 197.6 g
APTT (100 mg/kg, 6 h, dose level Low): 16.2 s
Bas (100 mg/kg, 6 h, dose level Low): 0%
Eos (100 mg/kg, 6 h, dose level Low): 1%
Fbg (100 mg/kg, 6 h, dose level Low): 282.2 mg/dL
Hb (100 mg/kg, 6 h, dose level Low): 13.1 g/dL
Ht (100 mg/kg, 6 h, dose level Low): 40.1%
Lym (100 mg/kg, 6 h, dose level Low): 75.8%
MCH (100 mg/kg, 6 h, dose level Low): 21.7 pg
MCHC (100 mg/kg, 6 h, dose level Low): 32.8%
MCV (100 mg/kg, 6 h, dose level Low): 66.4 fL
Mono (100 mg/kg, 6 h, dose level Low): 2.4%
Neu (100 mg/kg, 6 h, dose level Low): 20.2%
Plat (100 mg/kg, 6 h, dose level Low): 119.3 x10_4/uL
RBC (100 mg/kg, 6 h, dose level Low): 603.6 x10_4/ul
Ret (100 mg/kg, 6 h, dose level Low): 9.7%
WBC (100 mg/kg, 6 h, dose level Low): 94.4 x10_2/uL
KIDNEY_L (100 mg/kg, 6 h, dose level Low): 0.9 g
KIDNEY_R (100 mg/kg, 6 h, dose level Low): 0.9 g
KIDNEY_TOTAL (100 mg/kg, 6 h, dose level Low): 1.8 g
LIVER (100 mg/kg, 6 h, dose level Low): 8.1 g
ALP (100 mg/kg, 6 h, dose level Low): 1532.8 IU/L
ALT (100 mg/kg, 6 h, dose level Low): 37.4 IU/L
AST (100 mg/kg, 6 h, dose level Low): 71.4 IU/L
CRE (100 mg/kg, 6 h, dose level Low): 0.2 mg/dL
DBIL (100 mg/kg, 6 h, dose level Low): 0.004 mg/dL
GLC (100 mg/kg, 6 h, dose level Low): 175.2 mg/dL
IP (100 mg/kg, 6 h, dose level Low): 9.5 mg/dL
K (100 mg/kg, 6 h, dose level Low): 4 meq/L
LDH (100 mg/kg, 6 h, dose level Low): 71.6 IU/L
Na (100 mg/kg, 6 h, dose level Low): 144.6 meq/L
PL (100 mg/kg, 6 h, dose level Low): 140.6 mg/dL
RALB (100 mg/kg, 6 h, dose level Low): 2.5 g/dL
TBIL (100 mg/kg, 6 h, dose level Low): 0.054 mg/dL
TC (100 mg/kg, 6 h, dose level Low): 79.4 mg/dL
TG (100 mg/kg, 6 h, dose level Low): 27.2 mg/dL
TP (100 mg/kg, 6 h, dose level Low): 5.3 g/dL
gamma-GTP (100 mg/kg, 6 h, dose level Low): 1 IU/L
